{"source": "paper PMC5927802", "about": "“Pharmacokinetics, safety, and tolerability of the 2‐ and 3‐direct‐acting antiviral combination of AL‐335, odalasvir, and simeprevir in healthy subjects” (Pharmacology Research & Perspectives, 2018)", "key": {"[1]": {"test": "Plasma pharmacokinetics, Phase I open‐label two‐group fixed‐sequence drug‐drug interaction study", "conditions": "for C min / concentration at 23.9 h / concentration at 24 h / Cmax: mean (SD); for T last / Tmax: median (range); for AUC0‐24 h LSM ratio / C min LSM ratio / Cmax LSM ratio: point estimate (90% CI); for concentration at 23.9 h / concentration at 24 h / Cmax / Tmax: human, plasma, oral; for concentration at 23.9 h / concentration at 24 h: C last; for Tmax: T max", "text": "This was an open‐label, two‐group, fixed‐sequence study conducted at a single study center in Rennes, France (Biotrial). A two‐group, fixed‐sequence study design was chosen as this was deemed to be the most efficient way to evaluate the effect of simeprevir with/without odalasvir on AL‐335; and vice versa (Group 1) and the effect of odalasvir with/without simeprevir on AL‐335; and vice versa (Group 2). Thus, this study design had the potential to gather both 2‐way and 3‐way DDIs. For both groups, the study consisted of a screening period, a study period, and two follow‐up visits. The study was authorized by the French National Agency for the Safety of Medicine and Health Products (ANSM) and was approved by an Independent Ethics Committee (Comité de Protection des Personnes [CPP] Ouest VI, Brest, France; Reference CPP Ouest 6–CPP 888/MS1), and was conducted in accordance with the principles of the Declaration of Helsinki and International Conference on Harmonization. All subjects provided written informed consent to participate. Drug and molecular target nomenclature in this manuscript conforms to the British Journal of Pharmacology's Concise Guide to Pharmacology 2017/18.19\nSubjects in Group 1 received simeprevir 150 mg QD on days 4‐23, odalasvir 150 mg (loading dose) on day 14, odalasvir 50 mg QD on days 15‐23, and AL‐335 800 mg QD on days 1‐3, 11‐13, and 21‐23. Subjects in Group 2 received odalasvir 150 mg (loading dose) on day 4, odalasvir 50 mg QD on days 5‐23, simeprevir 150 mg QD on days 14‐23, and AL‐335 800 mg QD on days 1‐3, 11‐13, and 21‐23. […] A minimum of 10 days was considered sufficient for both odalasvir and simeprevir to reach steady‐state.\nSubjects were assigned sequentially to Group 1 then to Group 2 after confirming eligibility.\nAs this was an […] pharmacokinetic study, blood samples for pharmacokinetic analysis were collected predose and at 0.25, 0.5, 1, 2, 3, 4, 6, 8, 10, 12, and 24 hours postdose on days 3, 13, and 23 for determination of AL‐335, ALS‐022399, and ALS‐022227 plasma concentrations (Groups 1 and 2). For simeprevir, blood samples for determination of simeprevir plasma concentrations were taken at the same time points but on days 10, 13, 20, and 23 (Group 1) or days 20 and 23 (Group 2). Blood samples for the determination of odalasvir plasma concentrations were collected predose and at 1, 3, 4, 5, 6, 7, 8, 9, 10, 12, 16, and 24 hours postdose on days 20 and 23 (Group 1) or days 10, 13, 20, and 23 (Group 2), with two further samples also collected on the day 7 and day 28 follow‐up assessments (both groups).\nPlasma concentrations of AL‐335, ALS‐022399, ALS‐022227, odalasvir, and simeprevir were determined using validated liquid chromatography‐tandem mass spectrometry methods. Dichlorvos solution was added to blood samples from AL‐335‐treated subjects to stabilize AL‐335 and its metabolites (25 μL of 5 mmol/L dichlorvos into 1 mL blood). The lower limit of quantification was 1 ng/mL, 2 ng/mL, and 5 ng/mL for AL‐335, ALS‐022399, and ALS‐022227, respectively, 1 ng/mL for odalasvir, and 2 ng/mL for simeprevir.\nPharmacokinetic analyses were performed on all subjects with available profiles who received at least one dose of study drug without any protocol deviation affecting pharmacokinetic evaluation. […] Secondary parameters were last observed plasma concentration, apparent elimination half‐life, time of the maximum observed plasma concentration (T max), and time to last measurable plasma concentration (T last)."}, "CYP3A": {"system": "CYP3A", "parameters": "method as in PMID 26353895", "conditions": "cited from earlier work"}, "CYP1A2": {"system": "CYP1A2", "parameters": "method as in PMID 26353895", "conditions": "cited from earlier work"}, "[2]": {"system": "breast cancer resistance protein (BCRP)", "conditions": "not told; cited from earlier work"}, "OATP1B1/1B3": {"system": "OATP1B1/1B3", "conditions": "cited from earlier work"}, "[3]": {"conditions": "Group 1 Day 13, SMV + AL‐335 versus SMV alone"}, "[4]": {"conditions": "Group 1 Day 20, SMV + ODV versus SMV alone"}, "[5]": {"conditions": "Group 1 Day 23, SMV + AL‐335 + ODV versus SMV alone"}, "[6]": {"conditions": "Group 1 Day 23, SMV + AL‐335 + ODV"}, "[7]": {"conditions": "Group 2 Day 23, SMV + AL‐335 + ODV"}}, "note": "Entries after “also recorded” stand apart in the source; their conditions may differ. Where two headings read alike, the source gives them in different places."}
{"smiles": "COc1ccc2c(O[C@@H]3C[C@H]4C(=O)N[C@]5(C(=O)NS(=O)(=O)C6CC6)C[C@H]5/C=C\\CCCCN(C)C(=O)[C@@H]4C3)cc(-c3nc(C(C)C)cs3)nc2c1C", "note": "[simeprevir]", "values": [{"measurement": "effect of AL‐335 on pharmacokinetics", "setting": "[1]; AL‐335 800 mg QD coadministered", "value": "no effect; also recorded: did not alter; also recorded: no impact"}, {"measurement": "C min", "setting": "[1]; Group 1 Day 10, SMV alone", "value": "833 (856) ng/mL"}, {"measurement": "T last", "setting": "[1]; Group 1 Day 10, SMV alone", "value": "23.9 (23.9‐24.0) h"}, {"measurement": "C min", "setting": "[1]; Group 1 Day 13, SMV + AL‐335", "value": "857 (1129) ng/mL"}, {"measurement": "T last", "setting": "[1]; Group 1 Day 13, SMV + AL‐335", "value": "23.9 (23.9‐24.0) h"}, {"measurement": "AUC0‐24 h LSM ratio", "setting": "[1]; [3]", "value": "0.93 (0.83‐1.05)"}, {"measurement": "C min LSM ratio", "setting": "[1]; [3]", "value": "0.88 (0.76‐1.02)"}, {"measurement": "Cmax LSM ratio", "setting": "[1]; [3]", "value": "0.89 (0.79‐1.00)"}, {"measurement": "AUC0‐24 h LSM ratio", "setting": "[1]; [4]", "value": "1.76 (1.53‐2.01)"}, {"measurement": "C min LSM ratio", "setting": "[1]; [4]", "value": "1.41 (1.01‐1.99)"}, {"measurement": "Cmax LSM ratio", "setting": "[1]; [4]", "value": "1.66 (1.36‐2.01)"}, {"measurement": "C min", "setting": "[1]; Group 1 Day 20, SMV + ODV", "value": "1446 (2064) ng/mL"}, {"measurement": "T last", "setting": "[1]; Group 1 Day 20, SMV + ODV", "value": "23.9 (23.9‐24.0) h"}, {"measurement": "AUC0‐24 h LSM ratio", "setting": "[1]; [5]", "value": "1.60 (1.38‐1.85)"}, {"measurement": "C min LSM ratio", "setting": "[1]; [5]", "value": "1.82 (1.52‐2.19)"}, {"measurement": "Cmax LSM ratio", "setting": "[1]; [5]", "value": "1.43 (1.23‐1.66)"}, {"measurement": "C min", "setting": "[1]; [6]", "value": "1910 (2441) ng/mL"}, {"measurement": "T last", "setting": "[1]; [6]", "value": "24.0 (24.0‐24.0) h"}, {"measurement": "C min", "setting": "[1]; Group 2 Day 20, SMV + ODV", "value": "1274 (1035) ng/mL"}, {"measurement": "T last", "setting": "[1]; Group 2 Day 20, SMV + ODV", "value": "23.9 (23.8‐24.1) h"}, {"measurement": "C min", "setting": "[1]; [7]", "value": "1847 (2313) ng/mL"}, {"measurement": "T last", "setting": "[1]; [7]", "value": "24.0 (24.0‐24.1) h"}, {"measurement": "concentration at 23.9 h", "setting": "[1]; 150 mg, Group 1 Day 10, SMV alone", "value": 981, "unit": "ng/mL"}, {"measurement": "concentration at 23.9 h", "setting": "[1]; Group 1 Day 13, SMV + AL‐335", "value": 1020, "unit": "ng/mL"}, {"measurement": "concentration at 23.9 h", "setting": "[1]; Group 1 Day 20, SMV + ODV", "value": 2340, "unit": "ng/mL"}, {"measurement": "concentration at 24 h", "setting": "[1]; [6]", "value": 2390, "unit": "ng/mL"}, {"measurement": "concentration at 23.9 h", "setting": "[1]; Group 2 Day 20, SMV + ODV", "value": 2140, "unit": "ng/mL"}, {"measurement": "concentration at 24 h", "setting": "[1]; [7]", "value": 2590, "unit": "ng/mL"}, {"measurement": "Cmax", "setting": "[1]; Group 1 Day 10, SMV alone", "value": 2960, "unit": "ng/mL"}, {"measurement": "Cmax", "setting": "[1]; Group 1 Day 13, SMV + AL‐335", "value": 2760, "unit": "ng/mL"}, {"measurement": "Cmax", "setting": "[1]; Group 1 Day 20, SMV + ODV", "value": 5220, "unit": "ng/mL"}, {"measurement": "Cmax", "setting": "[1]; [6]", "value": 4740, "unit": "ng/mL"}, {"measurement": "Cmax", "setting": "[1]; Group 2 Day 20, SMV + ODV", "value": 4530, "unit": "ng/mL"}, {"measurement": "Cmax", "setting": "[1]; [7]", "value": 4950, "unit": "ng/mL"}, {"measurement": "Tmax", "setting": "[1]; Group 1 Day 10, SMV alone", "value": 6, "unit": "h"}, {"measurement": "Tmax", "setting": "[1]; Group 1 Day 13, SMV + AL‐335", "value": 6, "unit": "h"}, {"measurement": "Tmax", "setting": "[1]; Group 1 Day 20, SMV + ODV", "value": 6, "unit": "h"}, {"measurement": "Tmax", "setting": "[1]; [6]", "value": 6, "unit": "h"}, {"measurement": "Tmax", "setting": "[1]; Group 2 Day 20, SMV + ODV", "value": 6, "unit": "h"}, {"measurement": "Tmax", "setting": "[1]; [7]", "value": 8, "unit": "h"}, {"measurement": "difference in T max", "setting": "[1]; simeprevir coadministered with odalasvir", "value": "No clinically relevant difference"}, {"measurement": "CYP3A inhibition", "setting": "CYP3A", "value": "mild inhibitor of intestinal (not hepatic) CYP3A"}, {"measurement": "CYP1A2 inhibition", "setting": "CYP1A2", "value": "mild but not clinically relevant inhibitor"}, {"measurement": "BCRP substrate / inhibitor status", "setting": "[2]", "value": "substrate and inhibitor"}, {"measurement": "OATP1B1/3 substrate / inhibitor status", "setting": "OATP1B1/1B3", "value": "clinically confirmed OATP1B1 inhibitor"}, {"measurement": "OATP1B1/3 substrate / inhibitor status", "setting": "OATP1B1/1B3; listed as Simeprevir", "value": "substrate and inhibitor"}]}
